15 molecules from PubChem BioAssay (NCI) can be followed below.

Some test systems named below: HS 578T breast; DU-145 prostate; HT29 colon; NCI-H23 lung; MDA-MB-435; MCF7 breast; OVCAR-3 ovarian; HCT-116 colon; OVCAR-8 ovarian; NCI-H460 lung.
Common to all, as to test: NCI tumour cell line growth inhibition, 48 h

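Each compound was tested at five concentrations against cells in 96-well plates for 48 hours. The concentration for 50% growth inhibition is given as GI50. TGI: concentration producing complete growth inhibition.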 Where only a bound is given, the exact number is not on record here.

Take `Nc1ncnc2c1ccn2-c1cccc(NC(=O)c2ccc(N3CCOCC3)c(C(F)(F)F)c2)c1`: the GI50 in the assay with HS 578T breast was 1.83 µM; in the assay with DU-145 prostate, 3.2 µM; with HT29 colon it was 3 µM; with NCI-H23 lung, 2.95 µM; in the assay on MDA-MB-435 it was 2.64 µM; in the assay on MCF7 breast it was 3.44 µM. For the same molecule, the GI50 is 3.04 µM in the assay on OVCAR-3 ovarian, 2.71 µM in the assay with HCT-116 colon, 2.91 µM in the assay with OVCAR-8 ovarian and 2.92 µM with NCI-H460 lung. For the same molecule, the TGI worked out at 6.03 µM with HS 578T breast; 12.1 µM in the assay on DU-145 prostate; 12.3 µM in the assay with HT29 colon; 13.6 µM with NCI-H23 lung; 13.2 µM in the assay with MDA-MB-435; 14.2 µM in the assay with MCF7 breast. Moreover, the TGI in the assay on OVCAR-3 ovarian was 11.4 µM; in the assay on HCT-116 colon, 10.3 µM; with OVCAR-8 ovarian, 9.62 µM; with NCI-H460 lung, 9.33 µM.

In the case of `C#CCNC(=O)CC[C@@H](C)[C@H]1CC[C@H]2[C@@H]3CC[C@@H]4CC(=O)CC[C@]4(C)[C@H]3CC[C@]12C`, the GI50 in the assay with HS 578T breast is 21.3 µM; in the assay on DU-145 prostate, 14.8 µM; with HT29 colon, 12.7 µM; with NCI-H23 lung, 19.6 µM; in the assay on MDA-MB-435, 18.7 µM; in the assay with MCF7 breast it was 12 µM. For the same molecule, the GI50 in the assay with OVCAR-3 ovarian was 13.8 µM; in the assay on HCT-116 colon, 12.9 µM; in the assay with OVCAR-8 ovarian, 6.06 µM; with NCI-H460 lung it was 22 µM. For the same molecule, the TGI came to 77.3 µM with HS 578T breast; 35.1 µM with DU-145 prostate; 34.5 µM in the assay with HT29 colon; 75.7 µM with NCI-H23 lung; 60.1 µM in the assay with MDA-MB-435; 52.7 µM in the assay with MCF7 breast. The TGI came out at 36.1 µM in the assay on OVCAR-3 ovarian, 52 µM in the assay on HCT-116 colon, 32.8 µM in the assay on OVCAR-8 ovarian and 51.2 µM in the assay with NCI-H460 lung.

For `COc1cccc(/C=N/[N-]C(N)=O)c1[O-].[Co+2].[OH3+].c1ccncc1`, the TGI in the assay on HT29 colon, in the assay on NCI-H23 lung, in the assay with OVCAR-3 ovarian, in the assay with HCT-116 colon, in the assay on OVCAR-8 ovarian and in the assay with NCI-H460 lung was above 100 µM in each case.

With `O=C1OC(c2ccccc2Br)=N/C1=C/c1ccccc1`, the TGI with HS 578T breast was above 100 µM; in the assay with DU-145 prostate it was above 100 µM; in the assay with HT29 colon, above 100 µM; with NCI-H23 lung, above 100 µM; with MDA-MB-435 it was 93.7 µM; with MCF7 breast, above 100 µM. The TGI in the assay with OVCAR-3 ovarian was 35.4 µM; in the assay with HCT-116 colon, above 100 µM; in the assay on OVCAR-8 ovarian, 59.6 µM; in the assay on NCI-H460 lung it was above 100 µM.

`c1cc(CSc2ncnc3nc[nH]c23)ccn1`: the TGI with HS 578T breast, with DU-145 prostate, in the assay on HT29 colon, in the assay on NCI-H23 lung, in the assay on MDA-MB-435 and in the assay on MCF7 breast was above 100 µM throughout. Moreover, the TGI with OVCAR-3 ovarian, with HCT-116 colon, in the assay on OVCAR-8 ovarian and with NCI-H460 lung was above 100 µM in each case.

Turning to `CC1OC(CO)(n2cnc3c(N)ncnc32)C(O)C1O` (stereo not given), the TGI in the assay on HT29 colon, in the assay on NCI-H23 lung, with MCF7 breast, in the assay on OVCAR-3 ovarian, with HCT-116 colon and in the assay on OVCAR-8 ovarian was above 100 µM throughout. The same molecule returned a TGI with NCI-H460 lung above 100 µM.

As for `COc1cc(N(CCCl)CCCl)ccc1/C=N\NC(=O)c1cccnc1`, the GI50 in the assay on HS 578T breast was 32.6 µM; with DU-145 prostate, 24.6 µM; in the assay with HT29 colon it was 34.8 µM; in the assay with NCI-H23 lung, 26.7 µM; in the assay with MDA-MB-435, 30.3 µM; with MCF7 breast, 23.8 µM. Moreover, the GI50 is 21 µM with OVCAR-3 ovarian, 26 µM with HCT-116 colon, 26.5 µM in the assay with OVCAR-8 ovarian and 0.403 µM in the assay with NCI-H460 lung. Also, the TGI in the assay on HS 578T breast, with DU-145 prostate, in the assay with HT29 colon, with NCI-H23 lung, with MDA-MB-435 and in the assay with MCF7 breast was above 100 µM in each case. The TGI with OVCAR-3 ovarian is 50.4 µM; in the assay with HCT-116 colon, above 100 µM; in the assay with OVCAR-8 ovarian it was above 100 µM; in the assay on NCI-H460 lung, 25.4 µM.

Regarding `NC(CSCSCC(N)C(=O)O)C(=O)O` (stereo not given), the TGI in the assay with HT29 colon is above 225 µM; in the assay with NCI-H23 lung, above 225 µM; in the assay on MCF7 breast it was above 225 µM; with OVCAR-3 ovarian, above 225 µM; in the assay with HCT-116 colon, above 225 µM; in the assay on OVCAR-8 ovarian it was above 22.5 µM. The TGI in the assay with NCI-H460 lung is above 225 µM.

`CCCCCCCCCCCCCCCCCCOc1ccccc1COP(=O)(O)OOCC[N+](C)(C)C`: the GI50 was 1.18 µM in the assay with HS 578T breast; 1.88 µM in the assay with DU-145 prostate; 1.21 µM with HT29 colon; 0.804 µM in the assay on NCI-H23 lung; 2.65 µM in the assay on MDA-MB-435; 1.14 µM in the assay on MCF7 breast. Besides, the GI50 is 0.993 µM with OVCAR-3 ovarian, 1.41 µM with OVCAR-8 ovarian and 2.81 µM in the assay with NCI-H460 lung. Also, the TGI with HS 578T breast worked out at 4.91 µM; in the assay with DU-145 prostate, 7.43 µM; in the assay on HT29 colon, 5.38 µM; with NCI-H23 lung it was 4.27 µM; in the assay with MDA-MB-435 it was 12.3 µM; with MCF7 breast it was 3.32 µM. Moreover, the values for the TGI in the assay with OVCAR-3 ovarian, in the assay with OVCAR-8 ovarian and in the assay with NCI-H460 lung were 2.56 µM, 9.22 µM and 12.5 µM, respectively.

Take `O=c1oc2ccccc2n1P(=O)(Oc1ccc(Cl)cc1)n1c(=O)oc2ccccc21`: the TGI with HT29 colon, in the assay with NCI-H23 lung, with OVCAR-3 ovarian, in the assay with HCT-116 colon and with OVCAR-8 ovarian was above 100 µM in each case.

For the molecule `Cc1cc(N=Cc2c(CO)cnc(C)c2O)c(N=Cc2c(CO)cnc(C)c2O)cc1C`, the TGI with HS 578T breast, in the assay with DU-145 prostate, in the assay on HT29 colon, in the assay on NCI-H23 lung, in the assay with MDA-MB-435 and in the assay on MCF7 breast was above 100 µM throughout. Also, the TGI with OVCAR-3 ovarian, with HCT-116 colon, in the assay with OVCAR-8 ovarian and in the assay on NCI-H460 lung was above 100 µM in each case.

For `CCOC(=O)c1cc([N+](=O)[O-])c(Sc2ncnc3nc[nH]c23)c([N+](=O)[O-])c1`, the TGI in the assay on HS 578T breast was determined as 49.1 µM; with DU-145 prostate, 29.2 µM; in the assay with HT29 colon, 14.5 µM; with NCI-H23 lung, 28.7 µM; in the assay on MDA-MB-435, 14.7 µM; in the assay with MCF7 breast it was 3.41 µM. Besides, the TGI in the assay on OVCAR-3 ovarian came to 7.52 µM; in the assay with HCT-116 colon it was 3.94 µM; in the assay with OVCAR-8 ovarian it was 17.9 µM; in the assay with NCI-H460 lung, 25.6 µM.

In the case of `CON[N+]([O-])=NC(C)C`, the TGI with HS 578T breast, with DU-145 prostate, with HT29 colon, with NCI-H23 lung, with MDA-MB-435 and in the assay on MCF7 breast was above 100 µM throughout. The TGI in the assay on OVCAR-3 ovarian, with HCT-116 colon, with OVCAR-8 ovarian and with NCI-H460 lung was above 100 µM each time.

As for `O=C1CCC2COc3ccc(O)c1c32` (stereo not given), the TGI in the assay with HT29 colon, with NCI-H23 lung, with OVCAR-3 ovarian, with HCT-116 colon, in the assay on OVCAR-8 ovarian and with NCI-H460 lung was above 100 µM in each case.

On to `CC(C)(C)CI`, for which the TGI with HT29 colon was above 10 µM; in the assay with NCI-H23 lung, above 100 µM; with OVCAR-3 ovarian it was 35.4 µM; with HCT-116 colon, 39.7 µM; with OVCAR-8 ovarian, above 10 µM; with NCI-H460 lung, 81.2 µM.
